Data: paper PMC12217109, “Development of novel benzamide class I selective lysine deacetylase inhibitors as potent anticancer agents” (Journal of Enzyme Inhibition and Medicinal Chemistry, 2025)

Assays:
HeLa nuclear KDACs = test: Fluor-de-Lys HDAC fluorometric activity assay with HeLa nuclear extract; format: biochemical; settings: HeLa nuclear extract, up to 20 µM; read-out: HDAC Inhibition IC50
Experimental: Total zinc-dependent KDAC (classes I, II and IV) activity was measured using the Fluor-de-Lys^TM HDAC fluorometric activity assay kit (BioMol, Exeter, UK), as per manufacturers protocol. Briefly, HeLa nuclear extract, potential inhibitor (5 nM–20 μM) and assay buffer were incubated in a 96-well fluorometric plate at 37 °C for 15 min. Acetylated substrate (100 μM) was added and the mixture incubated at 37 °C for a further 20 min. The developer was added and the mixture incubated at 37 °C for a further 15 min. Fluorescence was measured using a microplate reader (λex = 360 nm, λem = 460 nm). Percentage KDAC activity and thus KDAC inhibition was determined by quantification of fluorescence obtained in the presence versus absence of the respective inhibitor.

[1] = system: A2780 ovarian cancer cell line; test: MTT cellular viability assay, A2780; format: cell-based; settings: Homo sapiens; listed as A2780* of Table 4, ovarian; values as in Tables 1 and 2 (MTT); read-out: A2780* cytotoxicity IC50
786-0 = test: NCI-60 cytotoxicity screen; format: cell-based; settings: Homo sapiens, NCI-60, 48 h, renal
Description: (§1) Compounds 3–7 were submitted to the US National Cancer Institute (NIH, Bethesda, Maryland) for screening against the NCI-60 panel of human cancer cell lines, as per standard protocol.

A549 = test: NCI-60 cytotoxicity screen; format: cell-based; settings: Homo sapiens, NCI-60, 48 h, NSCLC
Description: as §1

BT 549 = test: NCI-60 cytotoxicity screen; format: cell-based; settings: Homo sapiens, NCI-60, 48 h, breast
Description: as §1

CAKI-1 = test: NCI-60 cytotoxicity screen; format: cell-based; settings: Homo sapiens, NCI-60, 48 h, renal
Description: as §1

COLO205 = test: NCI-60 cytotoxicity screen; format: cell-based; settings: Homo sapiens, COLO 205; NCI-60, 48 h, colon
Description: as §1

DU-145 = test: NCI-60 cytotoxicity screen; format: cell-based; settings: Homo sapiens, NCI-60, 48 h, prostate
Description: as §1

EKVX = test: NCI-60 cytotoxicity screen; format: cell-based; settings: Homo sapiens, NCI-60, 48 h, NSCLC
Description: as §1

H23 = test: NCI-60 cytotoxicity screen; format: cell-based; settings: Homo sapiens, NCI-60, 48 h, NSCLC
Description: as §1

H460 = test: NCI-60 cytotoxicity screen; format: cell-based; settings: Homo sapiens, NCI-60, 48 h, NSCLC
Description: as §1

HCT116 = test: NCI-60 cytotoxicity screen; format: cell-based; settings: Homo sapiens, HCT-116; NCI-60, 48 h, colon
Description: as §1

HL-60 = test: NCI-60 cytotoxicity screen; format: cell-based; settings: Homo sapiens, NCI-60, 48 h, leukaemia
Description: as §1

HS 578 T = test: NCI-60 cytotoxicity screen; format: cell-based; settings: Homo sapiens, NCI-60, 48 h, breast
Description: as §1

KM12 = test: NCI-60 cytotoxicity screen; format: cell-based; settings: Homo sapiens, NCI-60, 48 h, colon
Description: as §1

M14 = test: NCI-60 cytotoxicity screen; format: cell-based; settings: Homo sapiens, NCI-60, 48 h, melanoma
Description: as §1

MCF-7 = test: NCI-60 cytotoxicity screen; format: cell-based; settings: Homo sapiens, MCF7; NCI-60, 48 h, breast
Description: as §1

MDA-MB-435 = test: NCI-60 cytotoxicity screen; format: cell-based; settings: Homo sapiens, NCI-60, 48 h, melanoma
Description: as §1

NCI/ADR-RES = test: NCI-60 cytotoxicity screen; format: cell-based; settings: Homo sapiens, NCI-60, 48 h, ovarian
Description: as §1

OVCAR-3 = test: NCI-60 cytotoxicity screen; format: cell-based; settings: Homo sapiens, NCI-60, 48 h, ovarian
Description: as §1

OVCAR-4 = test: NCI-60 cytotoxicity screen; format: cell-based; settings: Homo sapiens, NCI-60, 48 h, ovarian
Description: as §1

OVCAR-8 = test: NCI-60 cytotoxicity screen; format: cell-based; settings: Homo sapiens, NCI-60, 48 h, ovarian
Description: as §1

PC-3 = test: NCI-60 cytotoxicity screen; format: cell-based; settings: Homo sapiens, NCI-60, 48 h, prostate
Description: as §1

RPMI-8226 = test: NCI-60 cytotoxicity screen; format: cell-based; settings: Homo sapiens, NCI-60, 48 h, leukaemia
Description: as §1

RXF 393 = test: NCI-60 cytotoxicity screen; format: cell-based; settings: Homo sapiens, NCI-60, 48 h, renal
Description: as §1

SF-268 = test: NCI-60 cytotoxicity screen; format: cell-based; settings: Homo sapiens, NCI-60, 48 h, CNS
Description: as §1

SF-295 = test: NCI-60 cytotoxicity screen; format: cell-based; settings: Homo sapiens, NCI-60, 48 h, CNS
Description: as §1

SF-539 = test: NCI-60 cytotoxicity screen; format: cell-based; settings: Homo sapiens, NCI-60, 48 h, CNS
Description: as §1

SK-MEL-28 = test: NCI-60 cytotoxicity screen; format: cell-based; settings: Homo sapiens, NCI-60, 48 h, melanoma
Description: as §1

SK-MEL-2 = test: NCI-60 cytotoxicity screen; format: cell-based; settings: Homo sapiens, NCI-60, 48 h, melanoma
Description: as §1

SK-MEL-5 = test: NCI-60 cytotoxicity screen; format: cell-based; settings: Homo sapiens, NCI-60, 48 h, melanoma
Description: as §1

SNB-19 = test: NCI-60 cytotoxicity screen; format: cell-based; settings: Homo sapiens, NCI-60, 48 h, CNS
Description: as §1

SNB-75 = test: NCI-60 cytotoxicity screen; format: cell-based; settings: Homo sapiens, NCI-60, 48 h, CNS
Description: as §1

SW620 = test: NCI-60 cytotoxicity screen; format: cell-based; settings: Homo sapiens, SW-620; NCI-60, 48 h, colon
Description: as §1

U251 = test: NCI-60 cytotoxicity screen; format: cell-based; settings: Homo sapiens, U-251; NCI-60, 48 h, CNS
Description: as §1

UACC-62 = test: NCI-60 cytotoxicity screen; format: cell-based; settings: Homo sapiens, NCI-60, 48 h, melanoma
Description: as §1

H322M = test: NCI-60 cytotoxicity screen; format: cell-based, human; settings: Homo sapiens, NCI-H322M; NCI-60, 48 h, NSCLC
Description: as §1

TK-10 = test: NCI-60 cytotoxicity screen; format: cell-based, human; settings: Homo sapiens, TK-10; NCI-60, 48 h, renal
Description: as §1

UACC-257 = test: NCI-60 cytotoxicity screen; format: cell-based, human; settings: Homo sapiens, UACC-257; NCI-60, 48 h, melanoma
Description: as §1

OVCAR-5 = test: NCI-60 cytotoxicity screen; format: cell-based; settings: Homo sapiens, NCI-60, 48 h, ovarian
T-47D = test: NCI-60 cytotoxicity screen; format: cell-based, human; settings: Homo sapiens, T47D; NCI-60, 48 h, breast

Nc1ccccc1NC(=O)c1ccc(CNC(=O)OCc2cccnc2)cc1 [Compound 1, Entinostat, reference compound]
IC50 (HeLa nuclear KDACs): 3000 ± 200 nM | IC50 [1]: 600 nM | IC50 (786-0): 4.97 µM | IC50 (A549): 3.28 µM | IC50 (BT 549): 4.14 µM | IC50 (CAKI-1): 1170 nM | IC50 (COLO205): 2000 nM | IC50 (DU-145): 2260 nM | IC50 (EKVX): 3.26 µM | IC50 (H23): 3.22 µM | IC50 (H460): 830 nM | IC50 (HCT116): 800 nM | IC50 (HL-60): 850 nM | IC50 (HS 578 T): 2330 nM | IC50 (KM12): 4.31 µM | IC50 (M14): 2350 nM | IC50 (MCF-7): 640 nM | IC50 (MDA-MB-435): 960 nM | IC50 (NCI/ADR-RES): 2380 nM | IC50 (OVCAR-3): 1740 nM | IC50 (OVCAR-4): 1310 nM | IC50 (OVCAR-8): 1030 nM | IC50 (PC-3): 2790 nM | IC50 (RPMI-8226): 900 nM | IC50 (RXF 393): 1490 nM | IC50 (SF-268): 1860 nM | IC50 (SF-295): 2560 nM | IC50 (SF-539): 3.19 µM | IC50 (SK-MEL-28): 660 nM | IC50 (SK-MEL-2): 1100 nM | IC50 (SK-MEL-5): 740 nM | IC50 (SNB-19): 6.34 µM | IC50 (SNB-75): 5.07 µM | IC50 (SW620): 1300 nM | IC50 (U251): 2030 nM | IC50 (UACC-62): 280 nM | IC50 (H322M): 4.79 µM | IC50 (TK-10): 290 nM | IC50 (UACC-257): 1430 nM | IC50 (OVCAR-5): 1050 nM | IC50 (T-47D): 460 nM
